Measurements as given in ChEMBL document CHEMBL4765227, “Hit to lead optimization of a series of N-[4-(1,3-benzothiazol-2-yl)phenyl]acetamides as monoacylglycerol lipase inhibitors with potential anticancer activity” (Eur J Med Chem, 2016).

Columns and labels:
Monoglyceride lipase = molecular target: T1, Monoglyceride lipase (Homo sapiens, UniProt Q99685); test: Inhibition of human MAGL using 4-Nitrophenylacetate as substrate
T1 sequence (Q99685 whole entry): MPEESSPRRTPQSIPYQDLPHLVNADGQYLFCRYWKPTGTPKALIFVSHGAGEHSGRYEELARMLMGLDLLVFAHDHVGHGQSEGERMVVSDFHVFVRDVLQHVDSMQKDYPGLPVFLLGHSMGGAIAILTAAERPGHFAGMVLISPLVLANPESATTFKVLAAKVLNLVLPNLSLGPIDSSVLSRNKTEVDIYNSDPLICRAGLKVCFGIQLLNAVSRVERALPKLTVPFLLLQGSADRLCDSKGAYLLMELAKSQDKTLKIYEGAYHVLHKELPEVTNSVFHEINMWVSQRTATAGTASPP

SR [1] = test: Growth inhibition of human SR cells at 10 uM incubated for 48 hrs by sulforhodamine B assay relative to control; format: functional; details: read-out: GI
EKVX [2] = test: Growth inhibition of human EKVX cells at 10 uM incubated for 48 hrs by sulforhodamine B assay relative to control; format: functional; details: read-out: GI
NCI-H23 = test: Growth inhibition of human NCI-H23 cells at 10 uM incubated for 48 hrs by sulforhodamine B assay relative to control; format: functional; details: read-out: GI
COLO 205 = test: Growth inhibition of human COLO 205 cells at 10 uM incubated for 48 hrs by sulforhodamine B assay relative to control; format: functional; details: read-out: GI
SF-268 [3] = test: Growth inhibition of human SF-268 cells at 10 uM incubated for 48 hrs by sulforhodamine B assay relative to control; format: functional; details: read-out: GI
SF-295 = test: Growth inhibition of human SF-295 cells at 10 uM incubated for 48 hrs by sulforhodamine B assay relative to control; format: functional; details: read-out: GI
SF-539 = test: Growth inhibition of human SF-539 cells at 10 uM incubated for 48 hrs by sulforhodamine B assay relative to control; format: functional; details: read-out: GI
LOX IMVI = test: Growth inhibition of human LOX IMVI cells at 10 uM incubated for 48 hrs by sulforhodamine B assay relative to control; format: functional; details: read-out: GI
SK-MEL-2 = test: Growth inhibition of human SK-MEL-2 cells at 10 uM incubated for 48 hrs by sulforhodamine B assay relative to control; format: functional; details: read-out: GI
UACC-257 = test: Growth inhibition of human UACC-257 cells at 10 uM incubated for 48 hrs by sulforhodamine B assay relative to control; format: functional; details: read-out: GI
OVCAR-3 = test: Growth inhibition of human OVCAR-3 cells at 10 uM incubated for 48 hrs by sulforhodamine B assay relative to control; format: functional; details: read-out: GI
OVCAR-4 [4] = test: Growth inhibition of human OVCAR-4 cells at 10 uM incubated for 48 hrs by sulforhodamine B assay relative to control; format: functional; details: read-out: GI
786-0 = test: Growth inhibition of human 786-0 cells at 10 uM incubated for 48 hrs by sulforhodamine B assay relative to control; format: functional; details: read-out: GI
A498 [5] = test: Growth inhibition of human A498 cells at 10 uM incubated for 48 hrs by sulforhodamine B assay relative to control; format: functional; details: read-out: GI
MCF7 = test: Growth inhibition of human MCF7 cells at 10 uM incubated for 48 hrs by sulforhodamine B assay relative to control; format: functional; details: read-out: GI
Hs-578T = test: Growth inhibition of human Hs-578T cells at 10 uM incubated for 48 hrs by sulforhodamine B assay relative to control; format: functional; details: read-out: GI
RPMI-8226 = test: Growth inhibition of human RPMI-8226 cells incubated for 48 hrs by sulforhodamine B assay; format: functional
SR [6] = test: Growth inhibition of human SR cells incubated for 48 hrs by sulforhodamine B assay; format: functional
EKVX [7] = test: Growth inhibition of human EKVX cells incubated for 48 hrs by sulforhodamine B assay; format: functional
NCI-H226 = test: Growth inhibition of human NCI-H226 cells incubated for 48 hrs by sulforhodamine B assay; format: functional
HCC 2998 = test: Growth inhibition of human HCC 2998 cells incubated for 48 hrs by sulforhodamine B assay; format: functional
HT-29 = test: Growth inhibition of human HT-29 cells incubated for 48 hrs by sulforhodamine B assay; format: functional
SF-268 [8] = test: Growth inhibition of human SF-268 cells incubated for 48 hrs by sulforhodamine B assay; format: functional
Malme-3M = test: Growth inhibition of human Malme-3M cells incubated for 48 hrs by sulforhodamine B assay; format: functional
M14 = test: Growth inhibition of human M14 cells incubated for 48 hrs by sulforhodamine B assay; format: functional
UACC-62 = test: Growth inhibition of human UACC-62 cells incubated for 48 hrs by sulforhodamine B assay; format: functional
OVCAR-4 [9] = test: Growth inhibition of human OVCAR-4 cells incubated for 48 hrs by sulforhodamine B assay; format: functional
OVCAR-5 = test: Growth inhibition of human OVCAR-5 cells incubated for 48 hrs by sulforhodamine B assay; format: functional
SK-OV-3 = test: Growth inhibition of human SK-OV-3 cells incubated for 48 hrs by sulforhodamine B assay; format: functional
A498 [10] = test: Growth inhibition of human A498 cells incubated for 48 hrs by sulforhodamine B assay; format: functional
ACHN = test: Growth inhibition of human ACHN cells incubated for 48 hrs by sulforhodamine B assay; format: functional
TK-10 = test: Growth inhibition of human TK-10 cells incubated for 48 hrs by sulforhodamine B assay; format: functional
DU-145 = test: Growth inhibition of human DU-145 cells incubated for 48 hrs by sulforhodamine B assay; format: functional
T47D = test: Growth inhibition of human T47D cells incubated for 48 hrs by sulforhodamine B assay; format: functional
MDA-MB-468 = test: Growth inhibition of human MDA-MB-468 cells incubated for 48 hrs by sulforhodamine B assay; format: functional
[11] = read-out: LC50 (the source's name)

## O=C(CN1C(=O)C(=O)c2ccccc21)Nc1ccc(-c2nc3ccccc3s2)cc1
Monoglyceride lipase
  IC50: > 100 µM
SR [1]
  inhibition of growth at 10 µM: 15.2%
EKVX [2]
  inhibition of growth at 10 µM: 14.2%
NCI-H23
  inhibition of growth at 10 µM: 4.61%
COLO 205
  inhibition of growth at 10 µM: 0.13%
SF-268 [3]
  inhibition of growth at 10 µM: 10.9%
SF-295
  inhibition of growth at 10 µM: 0.13%
SF-539
  inhibition of growth at 10 µM: -0.12%
LOX IMVI
  inhibition of growth at 10 µM: -0.17%
SK-MEL-2
  inhibition of growth at 10 µM: 0.87%
UACC-257
  inhibition of growth at 10 µM: -12.4%
OVCAR-3
  inhibition of growth at 10 µM: 10.9%
OVCAR-4 [4]
  inhibition of growth at 10 µM: 4.68%
786-0
  inhibition of growth at 10 µM: -6.97%
A498 [5]
  inhibition of growth at 10 µM: 10.7%
MCF7
  inhibition of growth at 10 µM: 44.5%
Hs-578T
  inhibition of growth at 10 µM: -14.2%

## O=C(CNc1c(Cl)cccc1Cl)Nc1ccc(-c2nc3ccccc3s2)cc1
SR [1]
  inhibition of growth at 10 µM: 89.3%
NCI-H23
  inhibition of growth at 10 µM: 59.1%
COLO 205
  inhibition of growth at 10 µM: 12.3%
SF-268 [3]
  inhibition of growth at 10 µM: 53.8%
SF-295
  inhibition of growth at 10 µM: 2.62%
SF-539
  inhibition of growth at 10 µM: 20.1%
LOX IMVI
  inhibition of growth at 10 µM: 149%
SK-MEL-2
  inhibition of growth at 10 µM: 15.2%
UACC-257
  inhibition of growth at 10 µM: 3.54%
OVCAR-3
  inhibition of growth at 10 µM: 45.6%
OVCAR-4 [4]
  inhibition of growth at 10 µM: 82.5%
786-0
  inhibition of growth at 10 µM: 75.9%
MCF7
  inhibition of growth at 10 µM: 85.4%
Hs-578T
  inhibition of growth at 10 µM: 12.8%
RPMI-8226
  GI50: 2.07 µM
  LC50: > 100 µM
  TGI: 5.21 µM
SR [6]
  GI50: 1.05 µM
  LC50: > 100 µM
  TGI: 5.33 µM
EKVX [7]
  GI50: 8.29 µM
  LC50: 55.2 µM
  TGI: 22.6 µM
NCI-H226
  GI50: 2.02 µM
  LC50: > 100 µM
  TGI: 5.32 µM
HCC 2998
  GI50: 1.89 µM
  TGI: 3.56 µM
HCC 2998; [11]
  CC50: 6.68 µM
HT-29
  GI50: 2.01 µM
  LC50: 8.66 µM
  TGI: 4.17 µM
SF-268 [8]
  GI50: 1.99 µM
  LC50: 9.52 µM
  TGI: 4.35 µM
Malme-3M
  GI50: 1.71 µM
  TGI: 3.43 µM
Malme-3M; [11]
  CC50: 6.88 µM
M14
  GI50: 2.2 µM
  TGI: 6.55 µM
M14; [11]
  CC50: 60.1 µM
UACC-62
  GI50: 1.72 µM
  LC50: 8.97 µM
  TGI: 3.92 µM
OVCAR-4 [9]
  GI50: 1.68 µM
  LC50: 9.74 µM
  TGI: 4.05 µM
OVCAR-5
  GI50: 1.92 µM
  LC50 (concentration killing 50% of cells): 9.53 µM
  TGI: 4.28 µM
SK-OV-3
  GI50: 5.84 µM
  LC50 (concentration killing 50% of cells): > 100 µM
  TGI: 50.9 µM
A498 [10]
  GI50: 13.8 µM
  TGI: 26.9 µM
A498 [10]; [11]
  CC50: 52.4 µM
ACHN
  GI50: 1.82 µM
  LC50: 6.63 µM
  TGI: 3.47 µM
TK-10
  GI50: 2.15 µM
  LC50: 18.3 µM
  TGI: 5.41 µM
DU-145
  GI50: 3.33 µM
  LC50 (concentration killing 50% of cells): 32.2 µM
  TGI: 10.4 µM
T47D
  GI50: 1.86 µM
  LC50 (concentration killing 50% of cells): > 100 µM
  TGI: 5.44 µM
MDA-MB-468
  GI50: 0.0251 µM
  TGI: 0.137 µM
MDA-MB-468; [11]
  CC50: 4.33 µM

## O=C(Cn1nnc2ccccc21)Nc1ccc(-c2nc3ccccc3s2)cc1
SR [1]
  inhibition of growth at 10 µM: 59.9%
EKVX [2]
  inhibition of growth at 10 µM: 21.8%
NCI-H23
  inhibition of growth at 10 µM: 19.3%
COLO 205
  inhibition of growth at 10 µM: -5.13%
SF-268 [3]
  inhibition of growth at 10 µM: 7.63%
SF-295
  inhibition of growth at 10 µM: 15.2%
SF-539
  inhibition of growth at 10 µM: 28.8%
LOX IMVI
  inhibition of growth at 10 µM: 15.8%
SK-MEL-2
  inhibition of growth at 10 µM: -0.54%
UACC-257
  inhibition of growth at 10 µM: 5.5%
OVCAR-3
  inhibition of growth at 10 µM: 9.56%
OVCAR-4 [4]
  inhibition of growth at 10 µM: 27.8%
786-0
  inhibition of growth at 10 µM: 5.01%
A498 [5]
  inhibition of growth at 10 µM: 14.9%
MCF7
  inhibition of growth at 10 µM: 71.1%
Hs-578T
  inhibition of growth at 10 µM: -11.5%
